Publication PMC9804781, “Identification of a Novel Pseudo‐Natural Product Type IV IDO1 Inhibitor Chemotype” (Angewandte Chemie (International Ed. in English), 2022)
Like-named read-outs stand apart in the source and are kept apart here. One block for each compound: values may come before it.

Columns and labels:
[1] = molecular target: T1, His-tagged IDO2 (Homo sapiens, UniProt Q6ZQW0); assay: IDO2 Activity Assay; format: biochemical; details: 90 min + 120 min at 30 °C
T1 construct: His; purchased BPS Bioscience 72035 (kit)
T1 sequence (Q6ZQW0 1-407): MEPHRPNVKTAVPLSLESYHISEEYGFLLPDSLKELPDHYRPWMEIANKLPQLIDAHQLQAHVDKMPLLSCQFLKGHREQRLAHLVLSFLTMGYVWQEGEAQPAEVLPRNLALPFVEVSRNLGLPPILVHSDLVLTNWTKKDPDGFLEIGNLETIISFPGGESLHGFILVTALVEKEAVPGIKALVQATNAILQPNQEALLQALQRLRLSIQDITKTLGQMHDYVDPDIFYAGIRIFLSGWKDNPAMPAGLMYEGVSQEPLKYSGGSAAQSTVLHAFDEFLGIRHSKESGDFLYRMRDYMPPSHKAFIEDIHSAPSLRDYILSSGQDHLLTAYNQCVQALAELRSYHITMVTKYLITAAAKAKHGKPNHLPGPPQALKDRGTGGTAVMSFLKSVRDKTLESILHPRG
Method: Inhibition of indoleamine 2,3-dioxygenase 2 (IDO2) was tested using the Universal IDO1/IDO2/TDO Inhibitor Screening Assay Kit (cat# 72035, BPS Bioscience, US). 10 µg His-tagged IDO2 in IDO2 Assay Buffer was incubated with Complete IDO2 Reaction Solution (1% (v/v) component 2 in component 1) and 50 µM Test Inhibitor (0.5% (v/v) DMSO) for 90 min at 30°C with slow shaking in the dark prior to initiation of the reaction by addition of 20% (v/v) IDO2 Substrate. Samples were incubated for 120 min at 30°C with slow shaking in the dark. Afterwards, absorbance at 321 nm was recorded on the Spark® Multimode Microplate Reader (Tecan, AT), all values were subtracted by the background and normalized to the DMSO control.

[2] = molecular target: T2, His-tagged TDO (Homo sapiens, UniProt P48775); assay: TDO Activity Assay; format: biochemical; details: 120 min at 37 °C
T2 construct: His; purchased BPS Bioscience 72035 (kit)
Method: Inhibition of tryptophan 2,3-dioxygenase (TDO) was tested using the Universal IDO1/IDO2/TDO Inhibitor Screening Assay Kit (cat# 72035, BPS Bioscience, US). 500 ng His-tagged TDO in TDO Assay Buffer was incubated with Reaction Solution and 50 µM Test Inhibitor (0.5% (v/v) DMSO) for 120 min at 37°C with slow shaking in the dark. Afterwards, absorbance at 321 nm was recorded on the Spark® Multimode Microplate Reader (Tecan, AT), all values were subtracted by the background and normalized to the DMSO control. […]
(v/v) component 2 in component 1) and 50 µM Test Inhibitor (0.5% (v/v) DMSO) for 90 min at 30°C with slow shaking in the dark prior to initiation of the reaction by addition of 20% (v/v) IDO2 Substrate. Samples were incubated for 120 min at 30°C with slow shaking in the dark. […]

[3] = tested on: HeLa cells; parameters: method as in ref 9a = [9]; 9; details: ref 9a; cited from earlier work
[4] = tested on: glucose uptake; assay: Automated screen: glucose uptake; format: cell-based; details: automated screening assay
[5] = tested on: autophagy; assay: Automated screen: autophagy induction in the presence of chloroquine; format: cell-based; details: automated screening assay
[6] = tested on: autophagy; assay: Automated screen: autophagy induction under fed condition; format: cell-based; details: automated screening assay
[7] = tested on: BMP signaling; assay: Automated screen: BMP signaling; format: cell-based; details: automated screening assay
[8] = tested on: alkaline phosphatase; assay: Automated screen: alkaline phosphatase; details: automated screening assay
[9] = tested on: Wnt signaling; assay: Automated screen: Wnt signaling; format: cell-based; details: automated screening assay
[10] = tested on: autophagy; assay: Automated screen: autophagy inhibition in the presence of rapamycin; format: cell-based; details: automated screening assay
[11] = tested on: Kyn levels in BxPC-3 cells; assay: Automated (high-throughput) Kyn assay in BxPC-3 cells (Kyn sensor); format: cell-based
Method: Mammalian cell lines were maintained at 37°C and 5% CO2 in a humidified atmosphere and sub-cultivated twice a week. All cell lines were tested regularly for mycoplasma contamination and were always free of mycoplasma. BxPC-3 cells (DSMZ#760) were grown in RPMI-1640 medium supplemented with 10% FBS, 2 mM L-glutamine, 1 mM sodium pyruvate, 4.5 g/L glucose, 10 mM […]
HEPES and 1.5 g/L NaHCO3. […]
High-throughput Kyn assay
Automated screening for modulators of Kyn levels in BxPC-3 cells was performed as published earlier.[2] Briefly, BxPC-3 cells (1,000 cells/well) were seeded in black 1536-well plates prior to incubation for 24 h and subsequent treatment with compounds, 380 µM L-Trp and 50 ng/mL IFN-γ for 48 h. Afterwards, trichloroacetic acid was added to a final concentration of 7% (v/v), the plates were incubated for 10 min at 37°C and centrifuged for 10 min at 1620 x g. Kyn was detected by addition of 17.5 µM Kyn sensor[14] in assay buffer (excitation: 535 nm, emission: […]

[12] = tested on: hedgehog signaling; assay: Automated screen: hedgehog signaling; format: cell-based; details: automated screening assay
[13] = tested on: Kyn levels in HeLa cells; assay: Manual Kyn assay in HeLa cells (p-DMAB detection); format: cell-based; details: IFN-γ, L-Trp, compounds 48 h, p-DMAB, mean n=3 ±SD, read-out: Kyn Assay IC50
Method: Mammalian cell lines were maintained at 37°C and 5% CO2 in a humidified atmosphere and sub-cultivated twice a week. All cell lines were tested regularly for mycoplasma contamination and were always free of mycoplasma. BxPC-3 cells (DSMZ#760) were grown in RPMI-1640 medium supplemented with 10% FBS, 2 mM L-glutamine, 1 mM sodium pyruvate, 4.5 g/L glucose, 10 mM HEPES and 1.5 g/L NaHCO3. HeLa cells (DSMZ#57) were cultivated in DMEM supplemented with 10% FBS, 4.5 g/L glucose, 4 mM L-glutamine 1 mM sodium pyruvate, 1% non-essential amino acids, 3.7 g/L NaHCO3. SKOV-3 cells (ATCC#HTB-77) were maintained in modified McCoy’s 5A medium supplemented with 10% FBS, 1.5 mM L-glutamine and 2.2 g/L NaHCO3. […]
For manual testing, BxPC-3, HeLa or SKOV-3 cells (20,000 cells/well, 5,000 cells/well or 6,250 cells/well, respectively) were seeded in 96-well plates (BxPC-3 and HeLa) or 384-well plates (SKOV-3) in medium without phenol red. After 24 h, the IDO1 pathway was induced by addition of 50 ng/mL (BxPC-3 and HeLa) or 17.6 ng/mL IFN-γ (SKOV-3) and 380 µM (BxPC-3), 164.15 µM (HeLa) or 450 µM L-Trp (SKOV-3) with simultaneous treatment with the compounds at the indicated concentrations followed by incubation for 48 h. For the hemin competition assay, hemin was added together with IFN-γ, L-Trp and the compounds. Subsequently, trichloroacetic acid was added to a final concentration of 7% (v/v), the plates were incubated for 15 min at room […]
temperature and centrifuged for 10 min at 1800 x g. Afterwards, an equal volume of freshly prepared 2% (w/v) p-DMAB in glacial acetic acid (Ehrlich reagent) was added prior to measuring the absorbance at 492 nm and 650 nm on the Spark® Multimode Microplate Reader (Tecan, AT).
To determine the Kyn levels, the absorbance of the Kyn-p-DMAB adduct A492 was subtracted by the background absorbance A650 and normalized to the DMSO control. Data analysis was performed using a non-linear regression curve fit and GraphPad Prism 9.0 (GraphPad Software, Inc, US) to generate dose-response curves and obtain IC50 values. […]
Subsequently, 10 mM ascorbic acid, 10 μM methylene blue, 2 mM L-Trp and 100 μg/mL catalase were added and samples were incubated for 60 min at room temperature or 37°C. […]

[14] = tested on: purified IDO1; parameters: method as in ref 36b = [36]; 36; details: ref 36b; cited from earlier work

T2 sequence (P48775 whole entry): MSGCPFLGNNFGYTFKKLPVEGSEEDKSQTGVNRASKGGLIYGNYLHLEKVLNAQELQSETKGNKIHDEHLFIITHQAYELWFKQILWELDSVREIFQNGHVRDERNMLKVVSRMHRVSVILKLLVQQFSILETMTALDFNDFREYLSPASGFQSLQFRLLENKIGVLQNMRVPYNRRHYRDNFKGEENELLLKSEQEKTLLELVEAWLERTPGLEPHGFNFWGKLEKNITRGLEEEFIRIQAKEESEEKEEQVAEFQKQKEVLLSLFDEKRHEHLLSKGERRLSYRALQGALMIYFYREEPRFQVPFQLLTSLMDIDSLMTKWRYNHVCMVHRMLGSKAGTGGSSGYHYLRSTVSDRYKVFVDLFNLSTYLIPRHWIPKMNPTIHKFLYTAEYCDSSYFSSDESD

inhibition of IDO2 (result in words) ([1]; 50 µM): did not inhibit | inhibition of TDO (result in words) ([2]; 50 µM): did not inhibit
Compound: C[C@@H](C(=O)Nc1ccc(Cl)cc1)C1CCC(c2ccnc3ccc(F)cc23)CC1 (stereo partly shown) [BMS-986205]
IC50 [3]: 4.2 nM

Compound: CCOC(=O)C1=CC[C@](C(=O)OC)(c2cc3ccccc3n2C)N(S(=O)(=O)c2ccccc2[N+](=O)[O-])[C@@H]1C(=O)OC(C)(C)C [Compound 3b]
glucose uptake, inhibition [4]: 17% | autophagy induction in the presence of chloroquine, IC50/EC50 [5]: inactive | autophagy induction in the presence of chloroquine, inhibition [5]: -3.67 ± 0.94% | autophagy induction under fed condition, IC50/EC50 [6]: inactive | autophagy induction under fed condition, inhibition [6]: 0.33 ± 0.47% | BMP signaling, inhibition [7]: 37% | alkaline phosphatase, IC50/EC50 [8]: inactive | Wnt signaling, inhibition [9]: 45.33 ± 1.89% | autophagy inhibition in the presence of rapamycin, inhibition [10]: 10.50 ± 9.50% | effect on cellular kynurenine (Kyn) levels ([11]; BxPC-3 cells stimulated with IFN-γ): selectively decreased | kynurenine levels, IC50/EC50 ([11]; automated screening assay): 630 ± 320 nM | kynurenine levels, inhibition ([11]; automated screening assay): 94.0 ± 1% | hedgehog signaling, IC50/EC50 [12]: 6330 ± 690 nM | hedgehog signaling, inhibition [12]: 73.0 ± 10.0% | IC50 ([13]; listed as 3b^a): 2440 ± 560 nM | IC50 ([13]; listed as 3b^b): 660 ± 50 nM | IC50 [13]: 490 ± 100 nM

Compound: NS(=O)(=O)NCCNc1nonc1C(=NO)Nc1ccc(F)c(Br)c1 [epacadostat]
IC50 [14]: 73 nM | selectivity over IDO2 [14]: > 1000 fold | selectivity over TDO [14]: > 1000 fold | reduction of IDO2 activity ([1]; 50 μM, n=3): 49.9±0.3% | reduction of TDO activity ([2]; 50 μM, n=3): 75.5±4.3%
